The values that follow are results of earlier work, collected in patent US20100145053A1, “MODIFIED RELEASE CLOPIDOGREL FORMULATION” (CADILA HEALTHCARE LIMITED, priority 2006, published 2010).

Read-outs that look alike come from different tables or passages of the source.

For data set [1], the system named is ADP-induced platelet aggregation. Particulars: in vivo.
Data set [2] has as its system platelet aggregation in response to ADP. As to conditions: 300-mg loading dose followed by 75 mg daily.
The conditions of data set [3]: in vivo.
Data set [4] deals with platelet aggregation to ADP. Particulars: 4 hours after 600-mg load.

Regarding `COC(=O)[C@H](c1ccccc1Cl)N1CCc2sccc2C1` [Clopidogrel, Methyl (+)-(S)-alpha-(o-chlorophenyl)-6,7-dihydrothieno(3,2-c)pyridine-5(4H)-acetate], in data set [1], the “Time for platelet aggregation and bleeding time to return to baseline after treatment is discontinued” value is listed as “about 5 days”. The “Patients with Clopidogrel resistance (<10% reduction in aggregation in response to 5 μmol/L ADP)” value is on record as 63 % of patients in data set [2] (at 2 hours), 31 % of patients in data set [2] (at 24 hours), 31 % of patients in data set [2] (at 5 days) and 15 % of patients in data set [2] (at 30 days). Further, in the data set on phosphodiesterase, the “Inhibition of phosphodiesterase activity” value is on record as “does not inhibit”. In data set [3], the “Share of Clopidogrel available to undergo hepatic conversion to the active metabolite” value is listed as 15%. The “Share of Clopidogrel inactivated by esterases in the blood after absorption” value in data set [3] is listed as 85%. Further, the entries for the “Nonresponders (<10% reduction in platelet aggregation)” value in data set [4] (5 μmol/L ADP) and in data set [4] (20 μmol/ADP) were 5% and 11%, respectively. Moreover, the “Semiresponders (10% to 29% reduction in platelet aggregation)” value in data set [4] (5 μmol/L ADP) is 9%; in data set [4] (20 μmol/ADP), 26%.
Consider `COC(=O)[C@H](c1ccccc1Cl)N1CCc2sccc2C1` [Clopidogrel bisulfate], for which the “Time of peak concentration of Clopidogrel and its active metabolite post dosing” value in data set [3] was 1 to 3 h.
